Test results published in patent publication US7833795B2, “Assessment of cardiovascular risk using isoprostane biomarkers and COX-2 selective inhibitors” (The Trustees of the University of Pennsylvania, priority 2004, dated 2010).
Like-named read-outs stand apart in the source and are kept apart here.

Experiments:
COX-2 = COX-2 (Homo sapiens, UniProt P35354); details: in vivo
Description: (§1) Study Design: This randomized, double-blind, placebo-controlled protocol was approved by the Institutional Review Board of the University of Pennsylvania Health System and by the Advisory Council of the General Clinical Research Center (University of Pennsylvania, Philadelphia). Written informed consent was obtained from all study volunteers. […] Routine hematology, biochemistry, and urinalysis were assessed at time of screening and at 24 hours after administration of the drugs on completion of the study.
(§2) Measurements were performed immediately before the administration of drug (0 hrs) and 4 hours thereafter. […] A subset of the volunteers (n=5) progressed through the entire protocol on five occasions, each separated by two weeks, to assess intraindividual variability in drug response in five replicates.
(§3) Statistical analysis: The primary response variables were: i) ex vivo COX-2 inhibition, expressed as the ratio of postdrug to predrug plasma PGE2; ii) ex vivo COX-1 inhibition, expressed as the ratio of postdrug to predrug serum TxB2; iii) urinary PGI-M inhibition, expressed as the ratio of concentration post drug to post placebo administration; iv) urinary Tx-M inhibition, expressed as the ratio of concentration post drug to post placebo administration; and v) plasma drug concentrations four hours post drug administration. […]

COX-1 = COX-1 (Homo sapiens, UniProt P23219); details: in vivo
Sequence of COX-1 (P23219 24-599): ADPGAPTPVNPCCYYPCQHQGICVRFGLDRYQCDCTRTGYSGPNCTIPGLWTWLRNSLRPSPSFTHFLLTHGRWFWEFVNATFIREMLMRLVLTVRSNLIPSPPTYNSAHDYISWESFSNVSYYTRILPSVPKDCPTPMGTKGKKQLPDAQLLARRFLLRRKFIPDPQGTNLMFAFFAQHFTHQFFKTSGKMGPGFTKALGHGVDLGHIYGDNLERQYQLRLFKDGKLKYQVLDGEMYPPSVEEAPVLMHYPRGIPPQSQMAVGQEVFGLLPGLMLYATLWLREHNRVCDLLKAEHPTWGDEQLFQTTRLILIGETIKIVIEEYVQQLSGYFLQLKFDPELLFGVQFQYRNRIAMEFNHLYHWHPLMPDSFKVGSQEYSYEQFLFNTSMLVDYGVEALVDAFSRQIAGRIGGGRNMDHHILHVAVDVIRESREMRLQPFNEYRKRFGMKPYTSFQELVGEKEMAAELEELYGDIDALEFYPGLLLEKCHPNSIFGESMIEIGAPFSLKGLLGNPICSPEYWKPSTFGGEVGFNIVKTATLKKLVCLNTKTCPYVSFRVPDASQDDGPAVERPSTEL
Description: as §1, §2, §3

PGI2 biosynthesis = experiment: Urinary 2,3-dinor-6-keto PGF1α (PGI-M) in volunteers; type: in vivo, human; details: single dose (rofecoxib 25 mg, celecoxib 200 mg), 4 hours
From the text: (§4) Written informed consent was obtained from all study volunteers.
(§5) The coefficients of variation for both assays were <10%.
(§6) All variables were log transformed to approximate normality. Three extreme outlying datapoints were removed.

[1] = Plasma drug concentrations by LC tandem MS; type: in vivo, human; details: for concentration at 4 h: human, plasma, 4 hours after dosing, single dose (rofecoxib 25 mg, celecoxib 200 mg)
TxA2 formation = experiment: Urinary 11-dehydro TxB2 (Tx-M) in volunteers; type: in vivo, human
From the text: as §4, §5, §6

[2] = patients receiving rofecoxib (25 mg/day), as early as one month; cited from earlier work

Sequence of COX-2 (P35354 18-604): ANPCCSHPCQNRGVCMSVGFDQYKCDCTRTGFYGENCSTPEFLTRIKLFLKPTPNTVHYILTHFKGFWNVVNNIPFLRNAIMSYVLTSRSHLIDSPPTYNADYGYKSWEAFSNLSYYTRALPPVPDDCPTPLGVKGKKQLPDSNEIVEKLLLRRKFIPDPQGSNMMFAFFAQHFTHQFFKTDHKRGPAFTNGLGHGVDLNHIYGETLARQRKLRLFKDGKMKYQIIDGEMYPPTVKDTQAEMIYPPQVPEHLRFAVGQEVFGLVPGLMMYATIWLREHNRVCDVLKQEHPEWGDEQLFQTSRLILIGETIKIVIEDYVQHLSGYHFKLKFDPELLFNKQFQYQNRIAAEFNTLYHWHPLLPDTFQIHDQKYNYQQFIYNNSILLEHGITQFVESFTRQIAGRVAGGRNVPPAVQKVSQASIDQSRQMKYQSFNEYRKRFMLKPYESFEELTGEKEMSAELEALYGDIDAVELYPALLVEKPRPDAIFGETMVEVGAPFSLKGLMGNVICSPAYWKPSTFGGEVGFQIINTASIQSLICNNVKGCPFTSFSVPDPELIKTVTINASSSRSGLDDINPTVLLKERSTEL

CS(=O)(=O)c1ccc(C2=C(c3ccccc3)C(=O)OC2)cc1 [rofecoxib]
degree of inhibition of COX-2 dependent PGE2 formation ex vivo (COX-2): 44.8%
COX-1 derived serum TxB2 (COX-1): failed to inhibit significantly
urinary PGI-M compared to placebo (PGI2 biosynthesis): depressed urinary PGI-M
concentration at 4 h ([1]; read-out: plasma drug concentration, median): 215 ng/mL
concentration at 4 h ([1]; read-out: plasma drug concentration, range): 115 to 658 ng/mL
drop in plasma concentration per unit increase in BMI ([1]; rofecoxib 25 mg, 4 hours): about 2%
COX-1 inhibition in vivo (urinary Tx-M) in Pro17Leu variant of COX-1 (TxA2 formation; rofecoxib 25 mg): absence of COX-1 inhibition in vivo
excretion of urinary Tx-M compared to placebo (TxA2 formation; single dose (rofecoxib 25 mg, celecoxib 200 mg), 4 hours): not excretion of urinary Tx-M
elevation of blood pressure [2]: 3-4 mm Hg
